Legend:
HyNaC2/3/5 = HyNaC2/3/5 (Hydra vulgaris (Hydra magnipapillata), UniProt A8DZR6+A8DZR7+D3UD58); test: Inhibition of HyNaC2/3/5 currents in Xenopus oocytes (TEVC); assay type: cell-based; settings: HyNaC2/3/5
Method: (§1) One of the hallmarks of DEG/ENaCs is the block by the diuretic amiloride.
(§2) Figure 10 Diminazene is a potent inhibitor of HyNaCs. A) Current trace illustrating the concentration-dependent inhibition of HyNaC2/9/7 by diminazene. Block by 100 μM amiloride was used to compare the affinity for diminazene and amiloride. […] Dashed lines represent the zero current level. B) Concentration-response curves showing the concentration-dependent inhibition of HyNaCs by diminazene. HyNaCs, Hydra Na^+ channels.
(§3) To study the biophysical properties of the new HyNaCs, cRNA of HyNaCs was synthesized in vitro (mMessage mMachine kit, Ambion, Austin, Texas, USA) and injected into Xenopus laevis oocytes of stage V and VI. […] Whole cell currents were recorded from defolliculated oocytes by two-electrode voltage-clamp (TEVC) using the amplifier TurboTec 03X (npi electronic GmbH, Tamm, Germany). […]
(§4) EC50 values for Hydra-RFamides I and II as well as IC50 values for diminazene were determined by fits to the Hill equation using IGOR Pro (version 6.06, WaveMetrics, Inc.). Reversal potentials were defined as the first recorded data point, where currents reversed signs from negative to positive. […]

HyNaC2/11/5 = HyNaC2/11/5 (Hydra vulgaris (Hydra magnipapillata), UniProt A0A0A0MP55+A8DZR6+D3UD58); test: Inhibition of HyNaC2/11/5 currents in Xenopus oocytes (TEVC); assay type: cell-based; settings: HyNaC2/11/5
Method: as §1, §2, §3, §4

HyNaC2/3/6 = HyNaC2/3/6 (Hydra vulgaris (Hydra magnipapillata), UniProt A0A0A0MP54+A8DZR6+A8DZR7); test: Inhibition of HyNaC2/3/6 currents in Xenopus oocytes (TEVC); assay type: cell-based; settings: HyNaC2/3/6
Method: as §1, §2, §3, §4

HyNaC2/4/6 = HyNaC2/4/6 (Hydra vulgaris (Hydra magnipapillata), UniProt A0A0A0MP54+A8DZR6+A8DZR8); test: Inhibition of HyNaC2/4/6 currents in Xenopus oocytes (TEVC); assay type: cell-based; settings: HyNaC2/4/6
Method: as §1, §2, §3, §4

HyNaC2/3/7 = HyNaC2/3/7 (Hydra vulgaris (Hydra magnipapillata), UniProt A0A0A0MP73+A8DZR6+A8DZR7); test: Inhibition of HyNaC2/3/7 currents in Xenopus oocytes (TEVC); assay type: cell-based; settings: HyNaC2/3/7
Method: as §1, §2, §3, §4

HyNaC2/9/7 = HyNaC2/9/7 (Hydra vulgaris (Hydra magnipapillata), UniProt A0A0A0MP48+A0A0A0MP73+A8DZR6); test: Inhibition of HyNaC2/9/7 currents in Xenopus oocytes (TEVC); assay type: cell-based; settings: HyNaC2/9/7
Method: as §1, §2, §3, §4

HyNaC2/10/7 = HyNaC2/10/7 (Hydra vulgaris (Hydra magnipapillata), UniProt A0A0A0MP61+A0A0A0MP73+A8DZR6); test: Inhibition of HyNaC2/10/7 currents in Xenopus oocytes (TEVC); assay type: cell-based; settings: HyNaC2/10/7
Method: as §1, §2, §3, §4

HyNaCs = test: Block of HyNaC currents (HyNaCs in general) in Xenopus oocytes; assay type: cell-based, Hydra magnipapillata; settings: most HyNaCs
Method: as §1, §2
To study the biophysical properties of the new HyNaCs, cRNA of HyNaCs was synthesized in vitro (mMessage mMachine kit, Ambion, Austin, Texas, USA) and injected into Xenopus laevis oocytes of stage V and VI. After injection, oocytes were incubated for one to two days at 19°C in oocyte Ringer’s solution 2 (OR-2), which contained (in mM): 82.5 NaCl, 2.5 KCl, 1.0 Na2HPO4, 1.0 MgCl2, 1.0 CaCl2, 5.0 HEPES, 0.5 g/l PVP, 1,000 U/l penicillin and 10 mg/l streptomycin, NaOH was used to adjust pH to 7.3. Whole cell currents were recorded from defolliculated oocytes by two-electrode voltage-clamp (TEVC) using the amplifier TurboTec 03X (npi electronic GmbH, Tamm, Germany). […]

Hydra magnipapillata = test: Feeding reaction (tentacle curling induced by glutathione) of living Hydra; assay type: in vivo; settings: 10 μM GSH
Method: To find further evidence that amiloride inhibited the feeding reaction via inhibition of HyNaCs, we repeated these experiments with diminazene. Addition of glutathione (GSH; 10 μM final concentration) induced tentacle contractions and animals moved the tentacles to their mouth. After about two minutes, 100% of animals had their tentacles completely curled. […] Although the potency of diminazene in vivo was low, it should be taken into account that septate junctions provide a significant paracellular permeability barrier to the mesogleal space of Hydra. Moreover, it appears that diminazene requires active transport mechanisms for cellular uptake, probably strongly limiting its transcellular transport; amiloride in contrast is, in part, uncharged at neutral pH and has a significant membrane permeability.
Figure 11 Diminazene inhibits the feeding reaction of Hydra magnipapillata . Adult animals were held in plain medium or in medium containing 100, 200 or 300 μM diminazene (Dimi). The feeding response was induced by application of 10 μM glutathione (GSH). The number of animals showing complete tentacle curling was recorded every 30 seconds. *, P <0.05; **, P <0.01; ***, P <0.001.

Sequence of HyNaC2/10/7 (A0A0A0MP61 entry or part of it): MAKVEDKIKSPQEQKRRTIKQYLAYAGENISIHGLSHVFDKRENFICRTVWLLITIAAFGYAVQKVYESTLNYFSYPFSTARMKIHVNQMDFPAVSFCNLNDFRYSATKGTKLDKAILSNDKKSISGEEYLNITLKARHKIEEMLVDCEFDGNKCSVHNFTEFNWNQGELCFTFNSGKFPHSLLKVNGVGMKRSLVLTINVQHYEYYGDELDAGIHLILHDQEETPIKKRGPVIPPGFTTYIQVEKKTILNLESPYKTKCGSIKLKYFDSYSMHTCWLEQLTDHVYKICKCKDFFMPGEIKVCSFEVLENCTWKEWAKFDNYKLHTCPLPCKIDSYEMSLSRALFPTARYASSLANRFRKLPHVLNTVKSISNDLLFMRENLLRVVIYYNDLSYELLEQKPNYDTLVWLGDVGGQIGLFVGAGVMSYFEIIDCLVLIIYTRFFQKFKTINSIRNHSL
Sequence of HyNaC2/10/7 (A0A0A0MP73 entry or part of it): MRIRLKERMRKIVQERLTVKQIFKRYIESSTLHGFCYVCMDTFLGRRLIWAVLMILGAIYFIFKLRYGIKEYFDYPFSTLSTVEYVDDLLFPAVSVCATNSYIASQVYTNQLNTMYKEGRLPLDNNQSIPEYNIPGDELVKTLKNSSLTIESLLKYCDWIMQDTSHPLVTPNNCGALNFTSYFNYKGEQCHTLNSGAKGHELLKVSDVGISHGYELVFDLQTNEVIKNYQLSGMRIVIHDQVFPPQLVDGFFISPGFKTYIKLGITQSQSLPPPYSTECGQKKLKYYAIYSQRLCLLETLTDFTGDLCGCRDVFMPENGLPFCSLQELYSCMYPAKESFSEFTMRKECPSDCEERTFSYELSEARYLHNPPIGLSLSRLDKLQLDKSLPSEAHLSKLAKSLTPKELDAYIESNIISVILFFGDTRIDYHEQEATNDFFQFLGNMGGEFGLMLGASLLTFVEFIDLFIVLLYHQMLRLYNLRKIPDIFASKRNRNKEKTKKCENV
Sequence of HyNaC2/10/7 (A8DZR6 entry or part of it): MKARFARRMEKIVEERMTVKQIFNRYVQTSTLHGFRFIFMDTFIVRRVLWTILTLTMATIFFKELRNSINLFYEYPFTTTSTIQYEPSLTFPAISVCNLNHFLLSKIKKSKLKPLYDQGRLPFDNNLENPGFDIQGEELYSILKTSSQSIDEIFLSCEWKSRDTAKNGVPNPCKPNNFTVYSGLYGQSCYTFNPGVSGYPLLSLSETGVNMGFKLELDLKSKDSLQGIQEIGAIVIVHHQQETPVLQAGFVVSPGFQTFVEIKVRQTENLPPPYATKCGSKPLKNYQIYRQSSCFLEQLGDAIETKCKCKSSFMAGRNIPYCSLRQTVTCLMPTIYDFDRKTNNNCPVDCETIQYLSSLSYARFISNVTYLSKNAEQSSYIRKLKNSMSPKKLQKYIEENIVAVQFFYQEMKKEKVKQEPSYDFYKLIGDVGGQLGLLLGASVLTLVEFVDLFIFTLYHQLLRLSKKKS
Sequence of HyNaC2/4/6 (A8DZR8 entry or part of it): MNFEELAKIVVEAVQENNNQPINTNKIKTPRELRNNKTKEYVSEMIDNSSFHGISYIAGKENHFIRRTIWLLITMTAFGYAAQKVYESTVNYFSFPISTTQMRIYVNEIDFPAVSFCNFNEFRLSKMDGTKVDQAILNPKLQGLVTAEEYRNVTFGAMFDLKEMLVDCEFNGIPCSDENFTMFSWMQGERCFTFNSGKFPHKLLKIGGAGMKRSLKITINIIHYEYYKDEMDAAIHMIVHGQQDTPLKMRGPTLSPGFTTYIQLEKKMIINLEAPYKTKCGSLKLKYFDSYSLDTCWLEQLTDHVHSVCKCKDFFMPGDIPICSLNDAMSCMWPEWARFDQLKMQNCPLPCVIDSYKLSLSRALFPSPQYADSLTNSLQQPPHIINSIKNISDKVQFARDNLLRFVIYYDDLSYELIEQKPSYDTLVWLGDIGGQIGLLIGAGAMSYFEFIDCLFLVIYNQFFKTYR
Sequence of HyNaC2/4/6 (A0A0A0MP54 entry or part of it): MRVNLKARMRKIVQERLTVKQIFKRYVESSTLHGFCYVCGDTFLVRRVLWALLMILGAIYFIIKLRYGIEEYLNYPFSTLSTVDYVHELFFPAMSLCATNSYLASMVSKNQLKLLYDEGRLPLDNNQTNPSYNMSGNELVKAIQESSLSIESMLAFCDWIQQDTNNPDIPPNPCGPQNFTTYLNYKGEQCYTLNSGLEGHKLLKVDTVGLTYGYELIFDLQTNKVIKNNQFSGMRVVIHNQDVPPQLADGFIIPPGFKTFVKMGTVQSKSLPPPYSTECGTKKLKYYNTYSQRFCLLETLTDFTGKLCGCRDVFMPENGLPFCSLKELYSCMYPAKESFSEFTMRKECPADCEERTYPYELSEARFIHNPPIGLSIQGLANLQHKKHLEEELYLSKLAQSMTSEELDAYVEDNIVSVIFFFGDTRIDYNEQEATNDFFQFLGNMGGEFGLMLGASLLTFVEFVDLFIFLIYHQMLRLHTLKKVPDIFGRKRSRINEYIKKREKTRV
Sequence of HyNaC2/4/6 (A8DZR6 entry or part of it): as the sequence (A8DZR6 entry or part of it) above
Sequence of HyNaC2/3/6 (A0A0A0MP54 entry or part of it): as the sequence (A0A0A0MP54 entry or part of it) above
Sequence of HyNaC2/3/6 (A8DZR7 entry or part of it): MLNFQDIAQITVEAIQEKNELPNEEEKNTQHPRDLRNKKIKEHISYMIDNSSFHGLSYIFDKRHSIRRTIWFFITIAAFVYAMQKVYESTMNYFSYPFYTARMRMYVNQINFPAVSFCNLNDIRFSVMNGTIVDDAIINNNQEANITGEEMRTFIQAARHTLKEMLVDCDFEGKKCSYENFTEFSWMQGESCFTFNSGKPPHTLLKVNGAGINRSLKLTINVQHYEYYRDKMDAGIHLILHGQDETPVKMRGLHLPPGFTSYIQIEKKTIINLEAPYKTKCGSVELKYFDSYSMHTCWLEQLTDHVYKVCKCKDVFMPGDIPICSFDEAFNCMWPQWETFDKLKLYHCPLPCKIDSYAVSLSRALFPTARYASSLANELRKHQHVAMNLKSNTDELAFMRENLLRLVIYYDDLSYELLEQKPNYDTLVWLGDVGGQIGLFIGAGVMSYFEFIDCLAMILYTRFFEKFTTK
Sequence of HyNaC2/3/6 (A8DZR6 entry or part of it): as the sequence (A8DZR6 entry or part of it) above

## N=C(N)c1ccc(/N=N/Nc2ccc(C(=N)N)cc2)cc1 [diminazene]
HyNaC2/3/5
  IC50: 450 ± 90 nM
HyNaC2/11/5
  IC50: 31.4 ± 9.4 µM
HyNaC2/3/6
  IC50: 90 ± 20 nM
HyNaC2/4/6
  IC50: 50 ± 20 nM
HyNaC2/3/7
  IC50: 160 ± 80 nM
HyNaC2/9/7
  IC50: 1700 ± 580 nM
HyNaC2/10/7
  IC50: 5.4 ± 1.45 µM
HyNaCs; 10 μM diminazene
  block of HyNaC currents: almost completely blocked
HyNaCs; estimated
  potency relative to amiloride: > 100 fold
Hydra magnipapillata; 100 μM diminazene in medium
  tentacle curling (feeding reaction): slightly delayed
Hydra magnipapillata; 200 μM diminazene in medium
  initiation of tentacles movement (feeding reaction): more strongly and significantly (P ≤0.01) delayed
Hydra magnipapillata; 300 μM diminazene in medium
  feeding reaction: strongly inhibited the feeding reaction
Hydra magnipapillata; 300 μM diminazene in medium, after four minutes
  animals with tentacles completely curled: 20%
